{"source": "patent EP1129187B1", "about": "“NEW FAMILY OF MAMMALIAN POTASSIUM CHANNELS, THEIR CLONING AND THEIR USE, ESPECIALLY FOR THE SCREENING OF DRUGS” (CENTRE NATIONAL DE LA RECHERCHE SCIENTIFIQUE (CNRS), priority 1998, dated 2000)", "format_in_all_cases": "cell-based", "key": {"[1]": {"biological_target": "T1, human TASK-2 K+ channel, SEQ ID NO: 28 (Homo sapiens, UniProt O95279)", "T1 construct": "expressed in transfected cells; host or cells: COS cells transiently transfected with pIREScd8-TASK-2 (DEAE-dextran)", "T1 sequence (O95279 1-499)": "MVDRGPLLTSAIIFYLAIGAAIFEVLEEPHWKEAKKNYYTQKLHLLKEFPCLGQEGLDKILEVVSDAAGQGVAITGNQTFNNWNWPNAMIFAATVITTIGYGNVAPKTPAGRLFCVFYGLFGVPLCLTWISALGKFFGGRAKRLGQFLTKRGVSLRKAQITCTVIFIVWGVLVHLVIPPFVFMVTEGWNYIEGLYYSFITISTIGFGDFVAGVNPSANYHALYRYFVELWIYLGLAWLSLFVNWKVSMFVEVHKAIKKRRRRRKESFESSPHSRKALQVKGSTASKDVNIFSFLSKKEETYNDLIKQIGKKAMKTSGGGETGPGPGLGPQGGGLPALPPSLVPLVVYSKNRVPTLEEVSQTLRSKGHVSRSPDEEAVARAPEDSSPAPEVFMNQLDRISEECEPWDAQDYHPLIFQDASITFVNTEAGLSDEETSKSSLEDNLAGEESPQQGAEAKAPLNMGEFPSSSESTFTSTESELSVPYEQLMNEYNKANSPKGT", "assay": "TASK-2 currents elicited by voltage pulses to +50 mV, whole cell recording in transfected COS cells", "details": "70 nM, activation of PKC", "procedure": "For patch clamp analyses, a NotI/EcoRI fragment of 3.2 kb was excised from pBS-TASK 2 and subcloned into the pIRES-CD8 vectorto givepIREScdB-TASK-2. ThepIRES-CD8 vector was obtained by replacing the neo^R gene in the original vector pIRESneo (Clontech) by the coding sequence of the T type lymphocyte's surface marker CD8. COS cells were seeded at a density of 20,000 cells per 35 mm dishes 24 h prior to transfection. Cells were then transiently transfected by the classical DEAE-dextian method with 1 µg of prREScdB-TASK-2 plasmid per 35 mm dish. Transiently-transfected cells were visualized 48 h after transfection using the anti-CD8 antibody coated beads method (24). For whole cell recordings, the internal solution contained 150 mM KCI, 3 mM MgCl2, 5 mM EGTA, and 10 mM HEPES at pH 7.2 with KOH, and he external solution 150 mM NaCl, 5 mM KCI, 3 mM MgCl2 1 mM CaCl2, 10 mM HEPES at pH 7.4 with NaOH.\nThe effects of various pharmacological agents on currents elicited by voltage pulses to +50 mV have been studied in TASK-2-exprcssing. COS cells."}, "[2]": {"test_system": "human TWIK-1 K+ channel, mutation of the threonine 161 into alanine", "assay": "Currents of mutated TWIK-1 channel in Xenopus oocytes", "details": "mutant Thr161 to Ala", "procedure": "The TWIK-1 coding sequence was amplified using a low-error rate DNA polymerase (Pwo DNA pal, Boehringer) and subcloned in the plasmid pEXO so as to yield pEXO-TWIK-1. Mutations were performed using the whole plasmid pEXO-TWIK-1 with a highly reliable PCR extension kit (Boehringer) and two adjacent primers. One of these introduced a punctiform mutation in the IINIK-1 coding sequence, changing the 161 Thr codon into a codon for alanine. The product of the PCR was linearized by the enzyme BamHI and the cRNA were synthesized using a T7 RNA polymerase (Stratagene). Preparation of the X. larvis oocytes and cRNA injection were carried out in accordance with the literature (Guillemare, E. et al., 1992, Biochemistry. 31, 1246312468,\n(§1) Phosphorylation or dephosphorylation of specific amino acid residues is an important mechanism of regulation of the ionic channels (Levitan, I. B., 1994, Annul Rev. Physiol., 56, 193-212)."}, "[3]": {"biological_target": "human TASK1 K+ channel, SEQ ID NO: 4 (Homo sapiens, UniProt O14649)", "sequence (O14649 whole entry, the tested form may be a part)": "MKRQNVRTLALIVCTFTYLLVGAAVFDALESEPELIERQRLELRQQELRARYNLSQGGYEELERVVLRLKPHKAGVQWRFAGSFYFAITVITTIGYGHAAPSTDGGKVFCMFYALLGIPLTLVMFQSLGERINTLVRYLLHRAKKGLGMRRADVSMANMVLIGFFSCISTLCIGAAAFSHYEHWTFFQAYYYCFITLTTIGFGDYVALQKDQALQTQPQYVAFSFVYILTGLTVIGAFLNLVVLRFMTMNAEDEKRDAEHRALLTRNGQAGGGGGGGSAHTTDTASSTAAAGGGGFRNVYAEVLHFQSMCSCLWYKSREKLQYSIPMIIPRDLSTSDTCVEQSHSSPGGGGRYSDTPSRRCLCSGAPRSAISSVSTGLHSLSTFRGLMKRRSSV", "assay": "TASK1 currents elicited by voltage pulses to +50 mV, two-electrode voltage clamp in Xenopus oocytes", "details": "40 nM, activation of protein kinase C", "procedure": "For functional studies, TASK1 cRNAs were injected into Xenopus oocytes. This was accomplished by subcloning a 2480 bp SmaI/XhoI fragment from pBS-hT ASK containing 14 bp of 5' UTR, the coding sequence and the entire 3' UTR into the pEXO vector (Lingueglia et al., 1993) to give pEXO-TASK1. Capped-cRNAs were synthesised in vitro from the linearized plasmid by using the T7 RNA polymerase (Stratagene). Xenopus laevis were purchased from CRBM (Montpellier, France). Preparation and cRNA injection of oocytes has been described elsewhere (Guillemare et al., 1992). Oocytes were used for electrophysiological studies 2 to 4 days following injection (20 ng/oocyte). In a 0.3 ml perfusion chamber, a single oocyte was impaled with two standard microelectrodes (1-2.5 Mn resistance) filled with 3 M KCI and maintained under voltage clamp by using a Dagan TEV 200 amplifier, in standard ND96 solution (96 mM NaC1. 2 mM KCI, 1.8 mM CaCI2, 2 mM MgCl2, 5 mM HEPES, pH 7.4 with NaOH). In some experiments, NaCl was substituted with TMA Cl (Tetra Methyl Ammonium Chloride). Stimulation of the preparation, data acquisition, and analysis were performed using pClamp software (Axon instruments, USA). Drugs were applied externally by addition to the superfusate (flow rate: 3 ml/min) or intracellularly injected by using a pressure microinjector (Inject+Matic, Switzedand). All experiments were performed at room temperature (21-22 °C).\nFigure 12A presents the I-V relationships of the current in K^+-rich solutions ranging from 2 mM to 98 mM. […] The theoretical I-V relationships in various [K^+]out calculated according to the Goldman-Hodgkin-Katz current equation are shown in Figure 12D. […] The effect of various pharmacological agents on currents elicited by voltage pulses to +50 mV has been studied in TASK1-expressing oocytes."}, "[4]": {"biological_target": "T2, human TWIK-1 K+ channel, SEQ ID NO: 2 (Homo sapiens, UniProt O00180)", "T2 construct": "expressed in transfected cells; host or cells: Xenopus laevis oocytes injected with cRNA transcribed from pEXO-TWIK-1", "T2 sequence (O00180 1-336)": "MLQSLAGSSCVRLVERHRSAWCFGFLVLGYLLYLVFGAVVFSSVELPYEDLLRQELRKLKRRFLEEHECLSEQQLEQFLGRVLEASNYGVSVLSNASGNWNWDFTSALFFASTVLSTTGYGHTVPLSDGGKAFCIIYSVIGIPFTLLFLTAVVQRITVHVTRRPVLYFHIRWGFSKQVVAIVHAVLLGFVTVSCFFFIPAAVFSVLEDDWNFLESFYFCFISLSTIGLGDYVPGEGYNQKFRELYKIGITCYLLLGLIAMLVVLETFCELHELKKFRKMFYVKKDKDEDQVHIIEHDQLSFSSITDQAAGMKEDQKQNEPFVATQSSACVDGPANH", "assay": "TWIK-1 K+ currents, two-electrode voltage clamp in Xenopus oocytes injected with TWIK-1 cRNA", "details": "30 nM, activation of protein kinase C", "procedure": "For the functional study, the coding sequence of TWIK-1 was inserted between the noncoding sequences 5' and 3' of Xenopus globin in the vector pEXO (Lingueglia, E. et al., 1993, J. Biol. Chem., 269, 13736-13739). A complementary RNA (cRNA) was transcribed of this construction and injected in the oocytes of X laevis. In a 0.3ml perfusion chamber, a single oocyte was impaled on two standard glass microelectrodes (0.5 - 2.0 MW) charged with 3 M KCI and maintained under voltage-clamp with a Dagan TEV200 amplifier. The bath solution contained 98 mM KCl,1.8 raM CaCl2 […] and 5 mM HEPES at pH 7.4 with KOH. Stimulation of the preparation, data acquisition and analyses were carried out with the pClamp program (Axon Instruments) USA3.\nIntracellular acidification of the oocytes was produced using two methods: • superfusion with a solution enriched in CO2 which produces acidification by a mechanism involving the bicarbonate transport system (Guillemare, E. et al., 1995, Mol. Pharmacol., 47, 588-594); • treatment with dinitrophenol (DNP), which is a metabolic inhibitor that decouples the H+ gradient in mitochondria and induces internal acidity (Pedersen, P. L. and Carafoli, E., 1997, Trends Biol. Sci., 12, 146-189).\nas §1"}}}
{"smiles": "CCCCCCCCCCCCCC(=O)O[C@@H]1[C@@H](C)[C@@]2(O)[C@@H](C=C(CO)C[C@]3(O)C(=O)C(C)=C[C@@H]23)[C@@H]2C(C)(C)[C@]12OC(C)=O", "note": "[PMA, phorbol-12 myristate acetate]", "values": [{"measurement": "sensitivity of TASK-2 currents", "setting": "[1]", "value": "insensitive"}, {"measurement": "activation by PMA", "setting": "[2]", "value": "conserves the capacity to be activated"}, {"measurement": "sensitivity of TASK1 currents", "setting": "[3]", "value": "insensitive"}, {"measurement": "effect on TWIK-1 currents", "setting": "[4]", "value": "increases"}]}
